# Experimental data taken from patent publication US6841559B1, “Pyridinones to treat and prevent bacterial infections” (Washington University of St. Louis, priority 1999, dated 2005).
# What was measured:
# [1] = target: periplasmic chaperone PapD (Escherichia coli, UniProt P15319); assay: Direct binding assay on BIACORE 3000, immobilized PapD; settings: pyridinone 30 uM, 25° C., 30 μL/min, triplicate, Sensor Chip CM5
# Method: (§1) The affinity of the following pyridinone: [drawing 73] for periplasmic chaperones PapD and FimC were investigated using a direct binding assay on BIACORE 3000. Methods
# (§2) PapD (50 μg/ML in 10 mM NaAc pH 5.5) and FimC (50 μg/mL in 10 mM NaAc pH 5.5) were mobilized on Sensor Chi CM5 using standard thiol coupling procedure. This procedure was also employed for coupling of non-target proteins. Immobilization levels of 4000-10000 RU were obtained. Unmodified dextrane in one of the flow cells was used as reference surface.
# (§3) The pyridinone was diluted from 10 mM DMSO stock solution to a final concentration of 30 μM in running buffer (6.7 mM phosphate buffer (9.6 g Na2HPO4.2H2O, 1.7 G KH2PO4, 4.1 g NaCl, 100 mL H2O), 3.4 mM EDTA, 0.01% TWEEN, 5% DMSO, pH 7.4) so that the concentrations of DMSO and buffer substances were carefully matched. The compounds were injected (flow rate was 30 μL/min at 25° C.) and the binding of the compounds to the immobilized chaperone proteins was observed on real time. The surface was regenerated by injection of 10 mM glycin.HCl, pH 2.0 and then washed with a 1:1 mixture of DMSO and water.
# (§4) For screening of the affinity of the compounds of PapD and FimC, the pyridinone was injected (flow rate was 30 μL/min at 25° C.) at a concentration of 30 μM in triplicate. […]
# as §3, with “KH2PO2PO4,” for “KH2PO4,”, “water. […]” for “water.”
# (§5) A direct binding assay on BIACORE 3000 was employed to test the affinity of the following pyridinone: [drawing 76] for periplasmic chaperones PapD and FimC. Methods
# [2] = target: periplasmic chaperone FimC (Escherichia coli, UniProt P31697); assay: Direct binding assay on BIACORE 3000, immobilized FimC; settings: pyridinone 30 uM, 25° C., 30 μL/min, triplicate, Sensor Chip CM5
# Chain of periplasmic chaperone FimC (P31697 37-241): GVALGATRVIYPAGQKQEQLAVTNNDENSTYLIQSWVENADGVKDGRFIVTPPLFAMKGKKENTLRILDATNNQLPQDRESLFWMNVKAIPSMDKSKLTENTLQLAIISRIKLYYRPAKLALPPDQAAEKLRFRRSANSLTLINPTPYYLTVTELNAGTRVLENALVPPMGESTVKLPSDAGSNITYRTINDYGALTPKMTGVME
# Method: as §1, §2, §3, §4
# as §3, with “KH2PO2PO4,” for “KH2PO4,”, “water. […]” for “water.”
# as §5
# Chain of periplasmic chaperone PapD (P15319 22-239): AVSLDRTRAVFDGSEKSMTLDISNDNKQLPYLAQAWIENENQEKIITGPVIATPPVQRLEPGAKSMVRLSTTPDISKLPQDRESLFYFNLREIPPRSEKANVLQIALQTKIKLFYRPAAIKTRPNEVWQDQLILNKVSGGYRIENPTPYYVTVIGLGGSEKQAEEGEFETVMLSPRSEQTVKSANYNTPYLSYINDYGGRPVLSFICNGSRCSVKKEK
SMILES,Response Units PapD 30 uM [1],Response Units FimC 30 uM [2]
O=C(O)[C@@H]1CSc2cc(Cc3cccc4ccccc34)cc(=O)n21 [H_Pyr_COOH],"6,760176162 Response Units","11,69075072 Response Units"
Cc1cc(=O)n2c(c1C)SC[C@H]2C(=O)O [Me_Me_Pyr_COOH],"1,676914034 Response Units","6,535311642 Response Units"
Cc1cc(=O)n2c(c1-c1ccccc1)SC[C@H]2C(=O)O [Me_Ph_Pyr_COOH],"3,90056354 Response Units","6,753367367 Response Units"
O=C(O)[C@@H]1CSc2c(-c3ccccc3)c(Cc3cccc4ccccc34)cc(=O)n21 [Ph_Pyr_COOH],"46,22397585 Response Units","60,71350348 Response Units"
